The supplement of paper PMC10307832

Assays:
Experiment in all cases: relative viability (nuclei count vs DMSO), 5 days (fraction); higher = more cells survive
A-427 = test system: A-427
Procedure, shortened: (§1)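 Relative viability was taken as the ratio of nuclei in treated wells to nuclei in vehicle wells. Lung cancer cell lines in 1536-well plates received compounds by pin tool one day after seeding, either one drug alone or a fixed anchor-drug dose plus five library-drug doses (not always all listed) in √10 steps. Nuclei were counted on 4× images after 5 days of treatment, and values are medians of duplicate plates.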

NCI-H1651 = test system: NCI-H1651
Procedure, shortened: as §1

NCI-H1755 = test system: NCI-H1755
Procedure, shortened: as §1

LK-2 = test system: LK-2
Procedure, shortened: as §1

A549 = test system: A549
Procedure, shortened: as §1

NCI-H1299 = test system: NCI-H1299
Procedure, shortened: as §1

EBC-1 = test system: EBC-1
Procedure, shortened: as §1

CAL-12T = test system: CAL-12T
Procedure, shortened: as §1

Calu-6 = test system: Calu-6
Procedure, shortened: as §1

NCI-H1703 = test system: NCI-H1703
Procedure, shortened: as §1

IA-LM = test system: IA-LM
Procedure, shortened: as §1

## CN1CCN(CCOc2cc(OC3CCOCC3)c3c(Nc4c(Cl)ccc5c4OCO5)ncnc3c2)CC1 [Saracatinib] + C[C@@H](Oc1cc(-c2cnn(C3CCNCC3)c2)cnc1N)c1c(Cl)ccc(F)c1Cl [Crizotinib] (partner 1 µM)
A-427; first compound 0.02 µM
  relative viability: 1.04
A-427; first compound 0.2 µM
  relative viability: 0.604
A-427; first compound 0.6325 µM
  relative viability: 0.837
A-427; first compound 2 µM
  relative viability: 0.926
NCI-H1651; first compound 0.02 µM
  relative viability: 0.866
NCI-H1651; first compound 0.2 µM
  relative viability: 0.802
NCI-H1651; first compound 0.6325 µM
  relative viability: 0.923
NCI-H1651; first compound 2 µM
  relative viability: 0.751
NCI-H1755; first compound 0.02 µM
  relative viability: 0.883
NCI-H1755; first compound 0.2 µM
  relative viability: 0.536
NCI-H1755; first compound 0.6325 µM
  relative viability: 0.779
NCI-H1755; first compound 2 µM
  relative viability: 0.662
LK-2; first compound 0.02 µM
  relative viability: 0.253
LK-2; first compound 0.2 µM
  relative viability: 0.225
LK-2; first compound 0.6325 µM
  relative viability: 0.196
LK-2; first compound 2 µM
  relative viability: 0.201
A549; first compound 0.02 µM
  relative viability: 0.74
A549; first compound 0.2 µM
  relative viability: 0.738
A549; first compound 0.6325 µM
  relative viability: 0.649
A549; first compound 2 µM
  relative viability: 0.549
NCI-H1299; first compound 0.02 µM
  relative viability: 0.942
NCI-H1299; first compound 0.2 µM
  relative viability: 0.948
NCI-H1299; first compound 0.6325 µM
  relative viability: 0.985
NCI-H1299; first compound 2 µM
  relative viability: 0.781
EBC-1; first compound 0.02 µM
  relative viability: 0.174
EBC-1; first compound 0.2 µM
  relative viability: 0.198
EBC-1; first compound 0.6325 µM
  relative viability: 0.188
EBC-1; first compound 2 µM
  relative viability: 0.181
CAL-12T; first compound 0.02 µM
  relative viability: 0.649
CAL-12T; first compound 0.2 µM
  relative viability: 0.522
CAL-12T; first compound 0.6325 µM
  relative viability: 0.746
CAL-12T; first compound 2 µM
  relative viability: 0.367
Calu-6; first compound 0.02 µM
  relative viability: 0.769
Calu-6; first compound 0.2 µM
  relative viability: 0.594
Calu-6; first compound 0.6325 µM
  relative viability: 0.662
Calu-6; first compound 2 µM
  relative viability: 0.526
NCI-H1703; first compound 0.02 µM
  relative viability: 0.553
NCI-H1703; first compound 0.2 µM
  relative viability: 0.633
NCI-H1703; first compound 0.6325 µM
  relative viability: 0.23
NCI-H1703; first compound 2 µM
  relative viability: 0.0951
IA-LM; first compound 0.02 µM
  relative viability: 1.07
IA-LM; first compound 0.2 µM
  relative viability: 1.08
IA-LM; first compound 0.6325 µM
  relative viability: 1.24
IA-LM; first compound 2 µM
  relative viability: 0.738

## Cc1csc(=NC2CCCCC2)n1/N=C/c1ccc(O)c(O)c1O [MIM1] + C[C@]1(O)C[C@@H](c2nc(-c3ccc4ccc(-c5ccccc5)nc4c3)c3c(N)nccn32)C1 [Linsitinib] (partner 1 µM)
A-427; first compound 0.2 µM
  relative viability: 1.09
A-427; first compound 0.6325 µM
  relative viability: 1.14
A-427; first compound 2 µM
  relative viability: 1.11
A-427; first compound 6.325 µM
  relative viability: 1.07
A-427; first compound 20 µM
  relative viability: 0.505
NCI-H1651; first compound 0.2 µM
  relative viability: 0.925
NCI-H1651; first compound 0.6325 µM
  relative viability: 0.993
NCI-H1651; first compound 2 µM
  relative viability: 1
NCI-H1651; first compound 6.325 µM
  relative viability: 0.825
NCI-H1651; first compound 20 µM
  relative viability: 0.797
NCI-H1755; first compound 0.2 µM
  relative viability: 1.02
NCI-H1755; first compound 0.6325 µM
  relative viability: 0.996
NCI-H1755; first compound 2 µM
  relative viability: 1.03
NCI-H1755; first compound 6.325 µM
  relative viability: 0.71
NCI-H1755; first compound 20 µM
  relative viability: 0.724
LK-2; first compound 0.2 µM
  relative viability: 0.801
LK-2; first compound 0.6325 µM
  relative viability: 0.631
LK-2; first compound 2 µM
  relative viability: 0.519
LK-2; first compound 6.325 µM
  relative viability: 0.566
LK-2; first compound 20 µM
  relative viability: 0.179
A549; first compound 0.2 µM
  relative viability: 0.564
A549; first compound 0.6325 µM
  relative viability: 0.638
A549; first compound 2 µM
  relative viability: 0.618
A549; first compound 6.325 µM
  relative viability: 0.504
A549; first compound 20 µM
  relative viability: 0.515
NCI-H1299; first compound 0.2 µM
  relative viability: 0.98
NCI-H1299; first compound 0.6325 µM
  relative viability: 0.93
NCI-H1299; first compound 2 µM
  relative viability: 0.963
NCI-H1299; first compound 6.325 µM
  relative viability: 0.919
NCI-H1299; first compound 20 µM
  relative viability: 0.667
EBC-1; first compound 0.2 µM
  relative viability: 0.921
EBC-1; first compound 0.6325 µM
  relative viability: 0.829
EBC-1; first compound 2 µM
  relative viability: 0.871
EBC-1; first compound 6.325 µM
  relative viability: 0.605
EBC-1; first compound 20 µM
  relative viability: 0.318
CAL-12T; first compound 0.2 µM
  relative viability: 0.803
CAL-12T; first compound 0.6325 µM
  relative viability: 0.677
CAL-12T; first compound 2 µM
  relative viability: 0.695
CAL-12T; first compound 6.325 µM
  relative viability: 0.634
CAL-12T; first compound 20 µM
  relative viability: 0.225
Calu-6; first compound 0.6325 µM
  relative viability: 0.918
Calu-6; first compound 2 µM
  relative viability: 0.897
Calu-6; first compound 6.325 µM
  relative viability: 0.561
Calu-6; first compound 20 µM
  relative viability: 0.286
NCI-H1703; first compound 0.2 µM
  relative viability: 0.759
NCI-H1703; first compound 0.6325 µM
  relative viability: 1.31
NCI-H1703; first compound 2 µM
  relative viability: 0.701
NCI-H1703; first compound 6.325 µM
  relative viability: 0.144
NCI-H1703; first compound 20 µM
  relative viability: 0.095
IA-LM; first compound 0.2 µM
  relative viability: 0.563
IA-LM; first compound 0.6325 µM
  relative viability: 0.36
IA-LM; first compound 2 µM
  relative viability: 0.502
IA-LM; first compound 6.325 µM
  relative viability: 0.0829
IA-LM; first compound 20 µM
  relative viability: 0.105
